Measurements taken from patent US4076814A, “Preventive and curative compositions against mycoplasmosis” (Sankyo Company Limited, priority 1975, dated 1978).
Values after ≈ are worked out from the molar mass of the structure shown.

What was measured:
Format in all cases: cell-based
Mycoplasma hyorhinis = test: Antimicrobial test, conventional agar plate dilution method, Mycoplasma hyorhinis; settings: Mycoplasma, read-out: Minimum Inhibitory Concentration, Mycoplasma hyorhinis
From the text: (§1) ANTIMICROBIAL TEST AGAINST THREE STRAINS OF MYCOPLASMA
(§2) The test was effected by a conventional agar plate dilution method using the indicated strains of mycoplasma. The dithiocarbamic acid derivatives as shown below with Compound Nos. were employed in the test.

Mycoplasma pulmonis = test: Antimicrobial test, conventional agar plate dilution method, Mycoplasma pulmonis; settings: Mycoplasma, read-out: Minimum Inhibitory Concentration, Mycoplasma pulmonis
From the text: as §1, §2

Mycoplasma gallisepticum = test: Antimicrobial test, conventional agar plate dilution method, Mycoplasma gallisepticum; settings: Mycoplasmoides gallisepticum, read-out: Minimum Inhibitory Concentration, Mycoplasma gallisepticum
From the text: as §1, §2

| SMILES | MIC (Mycoplasma hyorhinis) [µg/mL] | MIC (Mycoplasma pulmonis) [µg/mL] | MIC (Mycoplasma gallisepticum) [µg/mL] |
| --- | --- | --- | --- |
| Cc1cc(CSC(=S)N(C)C)cc(CN(C)C)c1O [compound 236, 4-Hydroxy-3-dimethylaminomethyl-5-methylbenzyl dimethyldithiocarbamate] | 0.2 (≈ 0.67 µM) | 0.2 (≈ 0.67 µM) | 0.2 (≈ 0.67 µM) |
| COc1cc(CSC(=S)N2CCCCC2)cc(OC)c1O [compound 229, 4-Hydroxy-3,5-dimethoxybenzyl 1-piperidinecarbodithioate] | 0.39 (≈ 1.19 µM) | 0.39 (≈ 1.19 µM) | 0.39 (≈ 1.19 µM) |
| Cc1cc(CSC(=S)N2CCCC2)cc(C)c1O [compound 187, 4-Hydroxy-3,5-dimethylbenzyl 1-pyrrolidinecarbodithioate] | 0.78 (≈ 2.77 µM) | 0.78 (≈ 2.77 µM) | 0.78 (≈ 2.77 µM) |
| CCCCN(C)C(=S)SCCC(C)=O [compound 80, 2-Acethylethyl butylmethyldithiocarbamate] | 0.1 (≈ 0.428 µM) | 0.1 (≈ 0.428 µM) | 0.1 (≈ 0.428 µM) |
| CN(C)C(=S)SCCC(=O)C=Cc1ccccc1 [compound 134, 2-Cinnamoylethyl dimethyldithiocarbamate] | 0.2 (≈ 0.716 µM) | 0.2 (≈ 0.716 µM) | 0.2 (≈ 0.716 µM) |
| O=C1CCCCC1CSC(=S)N1CCCCC1 (stereo not drawn) [Compound No. 9, 2-Oxocyclohexylmethyl 1-piperidinecarbodithioate] | 0.2 (≈ 0.737 µM) | 0.39 (≈ 1.44 µM) | 0.2 (≈ 0.737 µM) |
| CCN(CC)C(=S)SCc1cc(C)c(O)cc1C(C)C [Compound No. 202, 4-Hydroxy-2-isopropyl-5-methylbenzyl diethyldithyldithiocarbamate] | 0.1 (≈ 0.321 µM) | 0.1 (≈ 0.321 µM) | 0.1 (≈ 0.321 µM) |
| CC(=O)C(C)CSC(=S)N(C)C (stereo not drawn) [Compound No. 147, 2-Acetylpropyl dimethyldithiocarbamate] | 0.05 (≈ 0.243 µM) | 0.05 (≈ 0.243 µM) | 0.05 (≈ 0.243 µM) |
| Cc1cc(CSC(=S)N2CCN(C)CC2)cc(C)c1O.Cl [compound 196, 4-Hydroxy-3,5-dimethylbenzyl 4-methyl-1-piperazinecarbodithioate hydrochloride] | 0.39 | 1.56 | 1.56 |
| Cc1ccc(C(=O)CCSC(=S)N(C)C)cc1 [compound 55, 2-(p-Toluoyl)ethyl dimethyldithiocarbamate] | 0.2 (≈ 0.748 µM) | 0.39 (≈ 1.46 µM) | 0.2 (≈ 0.748 µM) |
| Cc1cc2c(c(O)c1CSC(=S)N1CCOCC1)C1OCC34CCCC(C)(C)C3CCC(C)(O2)C14 (stereo not drawn) [compound 271, 16-(4-Morpholinethiocarbonylthiomethyl)siccanin] | 1.56 (≈ 3.01 µM) | 1.56 (≈ 3.01 µM) | 1.56 (≈ 3.01 µM) |
| CCN(CC)C(=S)SCCC(=O)CCc1ccccc1O [compound 125, 2-(o-Hydroxyhydrocinnamoyl)ethyl diethyldithiocarbamate] | 0.2 (≈ 0.614 µM) | 0.2 (≈ 0.614 µM) | 0.2 (≈ 0.614 µM) |
| O=C(CCSC(=S)N1CCCCCC1)c1ccccc1 [compound 31, 2-Benzoylethyl 1-hexamethyleneiminecarbodithioate] | 0.2 (≈ 0.65 µM) | 0.2 (≈ 0.65 µM) | 0.2 (≈ 0.65 µM) |
| CC(=O)CCSC(=S)N1CCCCCC1 [compound 89, 2-Acetylethyl 1-hexamethyleneiminecarbodithioate] | 0.1 (≈ 0.407 µM) | 0.1 (≈ 0.407 µM) | 0.2 (≈ 0.815 µM) |
| CCN(CC)C(=S)SCC1CCCC1=O (stereo not drawn) [Compound No. 2, 2-Oxocyclopentylmethyl diethyldithiocarbamate] | 0.1 (≈ 0.407 µM) | 0.1 (≈ 0.407 µM) | 0.1 (≈ 0.407 µM) |
| CCN(CC)C(=S)SCc1cc(CN(C)C)c(O)c(C(C)(C)C)c1 [compound 241, 4-Hydroxy-3-dimethylaminomethyl-5-t-butylbenzyl diethyldithiocarbamate] | 0.39 (≈ 1.06 µM) | 0.39 (≈ 1.06 µM) | 0.78 (≈ 2.12 µM) |
| Cc1cc2c(c(O)c1CSC(=S)N(C)C)C1OCC34CCCC(C)(C)C3CCC(C)(O2)C14 (stereo not drawn) [compound 265, 16-Dimethylthiocarbamoylthiomethylsiccanin] | 0.39 (≈ 0.82 µM) | 0.39 (≈ 0.82 µM) | 0.39 (≈ 0.82 µM) |
| CC(C)(C)c1cc(CSC(=S)N2CCOCC2)cc(C(C)(C)C)c1O [compound 219, 4-Hydroxy-3,5-di-t-butylbenzyl 4-morpholinecarbodithioate] | 0.1 (≈ 0.262 µM) | 0.2 (≈ 0.524 µM) | 0.2 (≈ 0.524 µM) |
| Oc1c(Cl)cc(CSC(=S)N2CCCCC2)cc1Cl [compound 234, 4-Hydroxy-3,5-dichlorobenzyl 1-piperidinecarbodithioate] | 1.56 (≈ 4.64 µM) | 3.13 (≈ 9.31 µM) | 3.13 (≈ 9.31 µM) |
| CC(C)(C)c1cc(CSC(=S)N2CCCCC2)cc(C(C)(C)C)c1O [compound 218, 4-Hydroxy-3,5-di-t-butylbenzyl 1-piperidinecarbodithioate] | 0.39 (≈ 1.03 µM) | 0.39 (≈ 1.03 µM) | 0.78 (≈ 2.05 µM) |
| CCC(=O)CCSC(=S)N(CC)CC [compound 99, 2-Propionylethyl diethyldithiocarbamate] | 0.05 (≈ 0.214 µM) | 0.05 (≈ 0.214 µM) | 0.05 (≈ 0.214 µM) |
| CCCCCCCCCCC(CSC(=S)N(C)C)C(C)=O (stereo not drawn) [compound 152, 2-Acetyldodecyl dimethyldithiocarbamate] | 0.39 (≈ 1.18 µM) | 0.1 (≈ 0.302 µM) | 0.1 (≈ 0.302 µM) |
